Earlier results, collected in patent US10548855B2, “Memantine combinations and use” (CHASE PHARMACEUTICALS CORPORATION, priority 2016, dated 2020).

Test system: mice
Details: water maze, 2 mg/kg

For `CC12CC3CC(C)(C1)CC(N)(C3)C2` [memantine, 3,5-dimethyladamantan-1-amine], the “effect on scopolamine-induced learning deficits” value is given as “reverses scopolamine-induced learning deficits”.
